PMC3753236, “Glucocorticosteroids in Nano-Sterically Stabilized Liposomes Are Efficacious for Elimination of the Acute Symptoms of Experimental Cerebral Malaria” (PLoS ONE, 2013)

Key:
[1] = system: Plasmodium berghei ANKA (PbAus); assay: Early treatment of ECM, PbAus-inoculated C57Bl/6 mice (with sequential artemisone); conditions: for Death: ECM (number of mice) / Death: Severe anemic malaria (number of mice) / Death: Toxicity (number of mice) / Death: ECM (%) / Death: Severe anemic malaria (%) / Average clinical score (±SEM): days 3, 5, 7, 9 p.i.; for Death: ECM (%) / Death: Severe anemic malaria (%): excludes acute toxicity deaths; for Average clinical score (±SEM): 11 days post-inoculation; for % survival / Group score: 20 mg/kg (Fig 6 legend)
Description: Plasmodium berghei ANKA (PbA; PbA MRA-311, CDC, Atlanta, GA, USA) was maintained in vivo by serial transfer of parasitized erythrocytes (PE) from infected to naïve mice. Experiments were also performed using a second strain of PbA, similarly maintained, and designated PbAus in the text (courtesy of Prof. G. Grau, University of Sydney, Australia).
Parasitemia was monitored by thin blood smears prepared from tail blood. These were stained with a 25% Giemsa solution, examined under a light microscope, and parasitemia determined as the percent of infected red blood cells per 10,000 erythrocytes. Disease severity was determined according to scoring of neurological symptoms and changes in weight and temperature, as previously described […] Parasitemias above 20% and the absence of neurological symptoms indicated severe anemic malaria.
For early ECM treatment, injections were given on days 3, 5, 7, and 9 p.i; for late treatment, treatment was given every other day, starting on day 5 p.i. for a total of at least two injections. Infected, non-treated control mice were injected with 5% dextrose or empty nSSL. Clinical signs and parasitemias were monitored and disease severity scored as described […] At each time-point, at least 3 mice from each group were chosen at random, deeply anesthetized, and brains were removed following intracardial perfusion (using saline, if organs were destined for real-time (rt)PCR analysis, or saline/formalin, if organs were destined for histopathological analysis). Organs destined for rtPCR analysis were snap-frozen in liquid nitrogen and stored at −80°C until use. Organs destined for immunohistology were immediately immersed in cryoprotectant solution (see below).

microglia = assay: Microglial activation, IBA-1 immunohistology; assay type: in vivo, C57Bl/6 mice; conditions: IBA-1, normalized to non-infected mice
Description: (§1) Sections were thaw-mounted onto on poly-L-lysine-coated slides and stored at -80°C until use.
Slides were thawed by sequential incubation at −20°C and 5°C (10 minutes at each temperature) and incubated in blocking solution consisting of 20% of 5% BSA and 80% of 5% NGS, in a moist environment at room temperature (RT). After one hour the blocking solution was removed and sections incubated overnight at 5°C with primary antibody diluted 1∶200 in blocking solution. Microglia were stained using rabbit anti-mouse ionized calcium binding adaptor molecule 1 (IBA-1) (Wako Chemicals, Richmond, VA, USA); astrocytes were stained using rabbit anti-bovine glial fibrillary acidic protein (GFAP) (cross-reactive to mouse; LifeSpan Biosciences, Seattle, WA, USA). After washing in PBS, slides were incubated for one hour at RT with secondary antibody, Cy3-AffiniPure donkey anti-rabbit IgG H+L (diluted 1∶200 in PBS; Jackson Immunoresearch Laboratories, West Grove, PA, USA), followed by an additional wash. […] At least three sections per brain (6 fields each) were examined, and the total number of astrocytes and microglia counted. […] Images were visualized and analyzed with ImagePro analysis software: quantification of relative fluorescence was performed using the integrated optical density (IOD) parameter. […]

[2] = Biodistribution of BMS administered as free BMS or nSSL-BMS; conditions: infected mice; for concentration at 1 h / concentration at 6 h / concentration at 24 h / concentration at 48 h: C57Bl/6 Ola-Hsd, mouse, iv, µg drug/g organ; for concentration at 1 h: 1 h post-injection; for concentration at 48 h: 48 h post-injection
Description: The total and intraliposomal (after treatment with Dowex 2X-800 anion exchanger, pH 5, which binds all free drug) concentrations of MPS or BMS and their hydrolysis products were quantified using HPLC [5]. Liposome size distribution, phospholipid concentration, drug to lipid ratio, and level of free drug (i.e. percent drug encapsulated) were determined (see Table 1) as previously described.
At 1 h, 6 h, 24 h, and 48 h post-injection, mice (n = 3 per group) were anesthetized and sacrificed for organ collection. Organs were pooled and homogenized in 5% dextrose, followed by spiking with hydrocortisone, which served as an internal standard for extraction and sample processing. The homogenates were extracted as described elsewhere. Quantification of BMS and its derivatives was performed by HPLC as described above.

astrocytes = assay: Astrocyte activation, GFAP immunohistology; assay type: in vivo, C57Bl/6 mice; conditions: for Astrocytes, normalized IOD: GFAP, normalized to non-infected mice
Description: as §1
Slides were thawed by sequential incubation at −20°C and 5°C (10 minutes at each temperature) and incubated in blocking solution consisting of 20% of 5% BSA and 80% of 5% NGS, in a moist environment at room temperature (RT). After one hour the blocking solution was removed and sections incubated overnight at 5°C with primary antibody diluted 1∶200 in blocking solution. Microglia were stained using rabbit anti-mouse ionized calcium binding adaptor molecule 1 (IBA-1) (Wako Chemicals, Richmond, VA, USA); astrocytes were stained using rabbit anti-bovine glial fibrillary acidic protein (GFAP) (cross-reactive to mouse; LifeSpan Biosciences, Seattle, WA, USA). After washing in PBS, slides were incubated for one hour at RT with secondary antibody, Cy3-AffiniPure donkey anti-rabbit IgG H+L (diluted 1∶200 in PBS; Jackson Immunoresearch Laboratories, West Grove, PA, USA), followed by an additional wash. After addition of 4′,6-diamidino-2-phenylindole (DAPI) in mounting solution (Dapi-Fluoromount-G, Southern Biotech, Birmingham, AL, USA) the slides were mounted with coverslips and examined by fluorescent microscopy. At least three sections per brain (6 fields each) were examined, and the total number of astrocytes and microglia counted. High-resolution images of stained slides were photographed using a laser confocal scanning microscope. Images were visualized and analyzed with ImagePro analysis software: quantification of relative fluorescence was performed using the integrated optical density (IOD) parameter. IOD values of infected non-treated or treated mice were normalized to non-infected mouse values.

[3] = system: PbAus-infected C57Bl/6 mice; assay: Brain hemorrhages, H&E staining; assay type: in vivo; conditions: treatment days 3, 5, 7, 9 p.i.
Description: H&E staining was performed by incubation of slides in Sigma's Accustain hematoxylin solution followed by staining in eosin solution (2% eosin, 1% phloxine and 0.5% acetic acid in 95% ethanol), and mounting in Hydromount (National Diagnostics, Cherry Hill, NJ, USA).

[4] = day 5 p.i., treatment days 3, 5, 7, 9 p.i.
[5] = day 9 p.i., treatment days 3, 5, 7, 9 p.i.
[6] = brain, 20 mg/kg, BMS in brain, 20 mg/kg i.v. on day 6 p.i.
[7] = heart, 20 mg/kg, BMS in heart, 20 mg/kg i.v. on day 6 p.i.
[8] = liver, 20 mg/kg, BMS in liver, 20 mg/kg i.v. on day 6 p.i.
[9] = lungs, 20 mg/kg, BMS in lungs, 20 mg/kg i.v. on day 6 p.i.

C[C@H]1C[C@H]2[C@@H]3CCC4=CC(=O)C=C[C@]4(C)[C@@]3(F)[C@@H](O)C[C@]2(C)[C@@]1(O)C(=O)COC(=O)CCC(=O)O [BMS, β-methasone hemisuccinate]
Death: ECM (number of mice) ([1]; 5 mg/kg i.v.): 5 | Death: Severe anemic malaria (number of mice) ([1]; 5 mg/kg i.v.): 1 | Death: Toxicity (number of mice) ([1]; 5 mg/kg i.v.): 3 | Death: ECM (%) ([1]; 5 mg/kg i.v.): (83%) | Death: Severe anemic malaria (%) ([1]; 5 mg/kg i.v.): (16%) | Death: ECM (number of mice) ([1]; 10 mg/kg i.v.): 9 | Death: Severe anemic malaria (number of mice) ([1]; 10 mg/kg i.v.): 1 | Death: Toxicity (number of mice) ([1]; 10 mg/kg i.v.): 3 | Death: ECM (%) ([1]; 10 mg/kg i.v.): (90%) | Death: Severe anemic malaria (%) ([1]; 10 mg/kg i.v.): (10%) | Average clinical score (±SEM) ([1]; 10 mg/kg): 7.5±1.6 | Death: ECM (number of mice) ([1]; 20 mg/kg i.v.): 9 | Death: Severe anemic malaria (number of mice) ([1]; 20 mg/kg i.v.): 3 | Death: Toxicity (number of mice) ([1]; 20 mg/kg i.v.): 5 | Death: ECM (%) ([1]; 20 mg/kg i.v.): (75%) | Death: Severe anemic malaria (%) ([1]; 20 mg/kg i.v.): (25%) | Survival rate on day 13 p.i., at the end of the cerebral phase ([1]; 20 mg/kg on days 3, 5, 7, 9 p.i., listed as free BMS): 12% | Average clinical score (±SEM) ([1]; 20 mg/kg): 12.3±2.4 | % survival [1, 4]: 100% | Group score [1, 4]: 1.3±1.1 | % survival [1, 5]: 47% | Group score [1, 5]: 8.4 ±1.7 | Incidence of ECM ([1]; treatment days 3, 5, 7, 9 p.i., as quoted with the gene expression study): 75% | Microglia, normalized IOD (microglia; day 5 p.i.): 12±1 | Microglia, normalized IOD (microglia; day 9 p.i.): 10±0.05 | concentration at 1 h [2, 6]: 400 ng/g | concentration at 6 h ([2]; brain, 20 mg/kg, BMS in brain, 20 mg/kg i.v. on day 6 p.i., 6 h post-injection): 100 ng/g | concentration at 24 h ([2]; brain, 20 mg/kg, BMS in brain, 20 mg/kg i.v. on day 6 p.i., 24 h post-injection): 100 ng/g | concentration at 48 h [2, 6]: 100 ng/g | concentration at 1 h [2, 7]: 2900 ng/g | concentration at 6 h ([2]; heart, 20 mg/kg, BMS in heart, 20 mg/kg i.v. on day 6 p.i., 6 h post-injection): 2400 ng/g | concentration at 24 h ([2]; heart, 20 mg/kg, BMS in heart, 20 mg/kg i.v. on day 6 p.i., 24 h post-injection): ~3000 ng/g | concentration at 48 h [2, 7]: 3300 ng/g | concentration at 1 h [2, 8]: 2400 ng/g | concentration at 6 h ([2]; liver, 20 mg/kg, BMS in liver, 20 mg/kg i.v. on day 6 p.i., 6 h post-injection): 3400 ng/g | concentration at 24 h ([2]; liver, 20 mg/kg, BMS in liver, 20 mg/kg i.v. on day 6 p.i., 24 h post-injection): 400 ng/g | concentration at 48 h [2, 8]: 400 ng/g | concentration at 1 h [2, 9]: 1600 ng/g | concentration at 6 h ([2]; lungs, 20 mg/kg, BMS in lungs, 20 mg/kg i.v. on day 6 p.i., 6 h post-injection): 2400 ng/g | concentration at 24 h ([2]; lungs, 20 mg/kg, BMS in lungs, 20 mg/kg i.v. on day 6 p.i., 24 h post-injection): 2000 ng/g | concentration at 48 h [2, 9]: 2000 ng/g | BMS in lungs, µg drug/g organ ([2]; 20 mg/kg i.v. on day 6 p.i., 24 h post-injection, listed as Free BMS, 20 mg/kg): 1.9 µg drug/g organ | Brain to liver BMS concentration ratio ([2]; 6 h post-injection): 0.03 | Astrocytes, normalized IOD (astrocytes; day 5 p.i.): 1.7±0.9 | Astrocytes, normalized IOD (astrocytes; day 9 p.i.): 1.1±0.1 | Astrocyte number of primary processes (astrocytes; day 9 p.i., n = 23, 18 cells): 10±2 | Number of hemorrhages ([3]; day 5 p.i.): 9±1 | Number of hemorrhages ([3]; day 9 p.i.): 9±2
